{
  "source": "patent US11957655B2",
  "about": "“Methods of treating hearing loss” (The Regents of the University of California, priority 2015, dated 2024)",
  "key": {"[1]": {"system": "UPR induction (CHOP and ATF4 mRNA) in HEK293T cells", "test": "UPR induction by thapsigargin in HEK293T cells, CHOP and ATF4 mRNA by qPCR", "format": "cell-based", "details": "HEK293T cells pretreated with ISRIB vs control formulation, then 1 micromolar thapsigargin", "description": "In another experiment, HEK293T cells were pretreated with a control formulation or ISRIB, […], then exposed […] to 1 micromolar thapsigargin for 2 hours. CHOP and ATF4 mRNA levels were then assessed by qPCR."}, "[2]": {"system": "wild type mice exposed to damaging noise", "test": "Noise-induced hearing loss in wild type mice, ABR threshold", "format": "in vivo, mouse", "details": "2.5 mg/kg intraperitoneal 4 hours before damaging noise, treated vs untreated (FIG. 9, N=3)", "description": "FIG. 9 depicts ABR threshold to click, 8 kHz, and 16 kHz stimuli in mice treated with ISRIB (dotted line, N=3)) compared with vehicle (solid line, N=3). All values are means with error bars indicating the standard error of the mean.\nWild type mice were subjected to the same treatment and cochleae were subsequently removed and apoptotic ER response gene expression was assessed.\nISRIB was delivered […] via intraperitoneal injection 4 hours before exposure to damaging noise, at 2.5 mg/kg."}, "[3]": {"system": "SERCA2b; fibroblast cells from TMTC4 KO and wild type mice", "test": "UPR stress pathway gene mRNA in fibroblasts treated with thapsigargin", "format": "cell-based, mouse", "details": "TMTC4 KO compared to wild type cells", "description": "Fibroblast cells were generated from TMTC4 KO mice and wild type mice. One group of cells was treated with the SERCA2b inhibitor thapsigargin. The expression of UPR stress pathway genes spliced X-box binding protein 1 (S-XBP1), the molecular chaperone BiP, and the pro-apoptotic protein CHOP were measured by mRNA quantification. The expression of the UPR stress response markers was low and was about equal in untreated wild type and TMTC4 KO cells."}, "[4]": {"system": "SERCA2b; cochlear explants from TMTC4 KO and wild type mice", "test": "UPR stress pathway and Caspase 3 mRNA in cochlear explants treated with thapsigargin", "format": "cell-based, mouse", "details": "thapsigargin treated cochlear explants from TMTC4 KO and wild type mice (FIG. 2)", "description": "FIG. 2. SYBR Green measurement of qPCR product measuring RNA expression of spliced X-box binding protein 1 (S-XBP1), the molecular chaperone BiP, the pro-apoptotic protein CHOP, and Caspase 3 in cochlear explants from mice. WT=wild type and KO=TMTC4 knockout mice. +TG indicates explants treated with the SERCA2b inhibitor thapsigargin. In another experiment, cochlear explants from TMTC4 KO and wild type mice were extracted. One group of explants was treated with the SERCA2b inhibitor thapsigargin. The expression of UPR stress pathway genes S-XBP1 BiP, CHOP, and the apoptotic gene Caspase 3 were measured by mRNA quantification (FIG. 2). In the untreated explants, the expression of the UPR stress response markers and of Caspase3 were about equal."}, "[5]": {"system": "wild type fibroblasts (ER Ca2+)", "test": "Ca2+ quantification in intracellular compartments of fibroblasts by Mag-FURA-2 imaging", "format": "cell-based, mouse", "details": "ten minutes with 1 micromolar ATP and 1 micromolar thapsigargin", "description": "In one experiment, quantification of Ca2^+ was performed in intracellular compartments of fibroblasts by Mag-FURA-2 imaging. In wild type fibroblasts, an area of high Ca2^+ concentration in the perinuclear region corresponding to the ER was observed. […] Quantification of the Ca2^+ gradient between ER and cytosol compartments in fibroblasts was also measured in both wild type and TMTC4 KO mice."}},
  "data": [
    {"molecule": "O=C(COc1ccc(Cl)cc1)N[C@H]1CC[C@H](NC(=O)COc2ccc(Cl)cc2)CC1", "note": "[ISRIB, trans-N,N′-(cyclohexane-1,4-diyl)bis(2-(4-chlorophenoxy)acetamide)]", "values": [
      {"measurement": "ATF4 mRNA expression", "setting": "[1]", "value": "significant and substantial reduction"},
      {"measurement": "CHOP mRNA expression", "setting": "[1]", "value": "significant and substantial reduction"},
      {"measurement": "ABR threshold to clicks at 8 kHz and 16 kHz", "setting": "[2]", "value": "lower in treated mice than in untreated mice"}
    ]},
    {"molecule": "C/C=C(/C)C(=O)O[C@H]1C(C)=C2[C@H]([C@@H]1OC(=O)CCCCCCC)[C@@](C)(OC(C)=O)C[C@H](OC(=O)CCC)[C@@]1(O)[C@H]2OC(=O)[C@@]1(C)O", "note": "[thapsigargin]", "values": [
      {"measurement": "expression of UPR stress response markers (S-XBP1, BiP, CHOP) mRNA", "setting": "[3]", "value": "substantially elevated in the TMTC4 KO cells compared to wild type cells"},
      {"measurement": "expression of UPR stress response markers (S-XBP1, BiP, CHOP) and Caspase 3 mRNA", "setting": "[4]", "value": "substantially elevated"},
      {"measurement": "Ca2+ concentration of perinuclear region (ER)", "setting": "[5]", "value": "reduced to that observed in the surrounding cytosol"}
    ]}
  ]
}
